Reference: patent US20250186597A1, “TARGETED IMMUNE ACTIVATION WITH IL-18 IMMUNOCYTOKINES” (BRIGHT PEAK THERAPEUTICS AG, priority 2023, published 2025)

What was measured:
[1] = system: PD-1positive transduced NK-92 cells; test: IFN gamma secretion assay in PD-1 positive transduced NK-92 cells (Example 17); assay type: cell-based, human
Method: To show selectivity of the anti-PD1-IL18 immunocytokine (IC) for PD-1 positive cells, the NK-92 cell line was used to generate a PD-1 expressing cell line and furthermore, to measure IFN[…] release upon incubation with IL-18 variants and ICs.
On the day of experiment, parental PD-1negative and PD-1positive transduced cells were harvested and washed with PBS 1× and resuspended in medium (w/o IL-2) containing 1 ng/ml of recombinant human Interleukin-12 (SinoBiologicals, Cat #CT011-H08H). After counting, cells were seeded at 100 000 cells/well in a 384 well culture plate and incubated at 37° C./5% CO2. When indicated, cells were preincubated with anti-PD-1 antibody LZM-009 at 17 uM during 30 min at 37° C. […] The lowest concentration assessed was 0.8 fM.
After 16-20 h incubation at 37° C./5% CO2, 5 μl of supernatant were carefully transferred to a 384 microwell OptiPlate (Perkin Elmer; Cat #6007270) and Interferon-gamma (IFNγ) levels were measured using the Human IFNγ AlphaLISA Assay Kit (Perkin Elmer, Cat #AL217C). […] AlphaLISA signal was then measured on an Enspire plate reader (Perkin Elmer) using 680 and 615 nm as excitation and emission wavelengths respectively. Half maximal effective concentration (EC50) was calculated based on a variable slope, four parameter analysis using GraphPad PRISM software.

[2] = system: parental PD-1 negative KG-1 cells; test: IFN gamma secretion assay in parental PD-1 negative KG-1 cells (Example 11); assay type: cell-based, human; details: IFNγ secretion
Method: The KG-1 cell line was used to generate a PD-1 expressing cell line and furthermore, to measure IFNγ release upon incubation with IL-18 variants and corresponding IL-18 immunocytokines.
IFNγ release was assessed in PD-1 positive (transduced) KG-1 cells, as well as in the parental PD-1 negative cells. 0.5×10^5 cells were seeded into a 96-well U-bottom plate in culture media (RPMI, 10% FBS, 1% L-Glutamine) and stimulated with IL-18 variants/ICs for 20-24 h. The test items were diluted to 100 nM in culture medium, followed by 7 10-fold serial dilutions. The lowest concentration assessed was […]. After incubation, IFNγ release was measured using the LEGENDplex custom human mix and match KIT (Biolegend LEGENDplex™ Human IFN-γ Capture Bead B5, 13X #740942, LEGENDplex™ HU Essential Immune Response Panel Detection Abs, #740931, LEGENDplex™ Buffer Set A #740368). To this end, cell culture supernatant was collected and diluted 1:1 with Assay Buffer. Fluorescence measurements were done with a Quanteon Flow Cytometer from Acea Biosciences. For analysis, MFI values (median fluorescence intensity) were exported and plotted against concentrations used. The EC50 values (half maximal effective concentration) were calculated based on a variable slope and four parameter analysis using GraphPad PRISM software version 9.

EC50 ([1]; IFNγ secretion): 0.13 nM | PD-1^neg/PD-1^pos EC50 ratio ([1]; NK-92 cells): 1.4
Substance: SEQ ID NO: 1: Native sequence of human IL-18 (bioactive form) [reference compound]
EC50 [2]: 0.387 nM
